Laboratory results taken from patent publication EP0643558B1, “SANITIZING COMPOSITIONS” (ECOLAB INC., priority 1991, dated 1992).

Experiments:
Assay type in all cases: cell-based
[1] = tested on: Staphylococcus aureus; test: A.O.A.C. Sanitizing Test (Germicidal and Detergent Sanitizing Action of Disinfectants, para. 960.09); conditions: use solutions, 0.1 wt-% fatty acid + 0.1 wt-% lactic acid (88% w/v) in distilled water, solution pH 2.96-2.97
Source text: (§1) A sanitizer is an agent that reduces the number of bacterial contaminants to safe levels as judged by public health requirements. Practically, a sanitizer must result in 99.999% reduction (5 log order reduction) for given organisms as defined by Germicidal and Detergent Sanitizing Action of Disinfectants, Official Methods of Analysis of the Association of Official Analytical Chemists, paragraph 960.09 and applicable sections, 15th Edition, 1990 (EPA Guideline 91-2). In common practice, substances that are applied to food contact surfaces for antimicrobial purposes must meet this requirement. It has now been discovered that a sanitizer comprising octanoic acid (C8) plus a food additive organic or inorganic acid buffer does indeed meet all of the criteria set forth for a food grade sanitizer. […] Table 1A is a summary of compositions and Table 1B is a summary of their bactericidal activity as determined by the official A.O.A.C. Sanitizing Test. (Germicidal and Detergent Sanitizing Action of Disinfectants, Official Methods of Analysis of the Association of Official Analytical Chemists, paragraph 960.09 and applicable sections, 15th Edition, 1990, EPA guideline 91-2). The octanoic acid is indeed very unique, peaking out at seven log order reductions with both a gram positive (Staphylococcus aureus) and a gram negative (Escherichia coli) bacteria and passes the test requirement for a sanitizing agent. […] Examples IA through IE represent use solutions of the sanitizers.

[2] = tested on: Escherichia coli; test: as above; conditions: use solutions, 0.1 wt-% fatty acid + 0.1 wt-% lactic acid (88% w/v) in distilled water, solution pH 2.96-2.97
Source text: as §1

[3] = tested on: Aspergillus niger; test: Fungicidal activity, A.O.A.C. Disinfection Test Method; conditions: spores of Aspergillus niger, compared with the other test organisms of Table 5B
Source text: A disinfectant is an agent that kills all vegetative cells including most recognized pathogenic microorganisms. As such, it must pass a more stringent bactericidal test; the A.O.A.C. Use Dilution Methods, Official Methods of Analysis of the Association of Official Analytical Chemists, paragraph 955.14 and applicable sections, 15th Edition, 1990 (EPA Guideline 91-2). […] Disinfection Test Method. […]

SMILES: CCCCCCCCCC(=O)O [decanoic acid, reference compound]
- Results Log Reductions Col. Forming Units S. aureus [1]: possesses some activity
- Results Log Reductions Col. Forming Units E. coli [2]: possesses some activity

SMILES: CCCCCCCC(=O)O [octanoic acid, Octanoic acid]
- Results Log Reductions Col. Forming Units S. aureus [1]: seven
- Results Log Reductions Col. Forming Units E. coli [2]: seven
- concentration for complete kill [3]: required a higher concentration for complete kill
